We go through 15 compounds from patent EP0155872A1, “Process for reducing the lignin content of plants, and compositions for putting it into use” (priority 1984, dated 1985).

Entries after “also recorded” stand apart in the source; their conditions may differ. Read-outs that look alike come from different tables or passages of the source.

Assay [1] concerns the target T1, CAD de peuplier (Populus deltoides, UniProt P31657).
T1 construct: CAD de peuplier isolée selon la méthode deSARNI et al,1984; from tissue; host or cells: poplar plant material
T1 sequence (P31657 1-357): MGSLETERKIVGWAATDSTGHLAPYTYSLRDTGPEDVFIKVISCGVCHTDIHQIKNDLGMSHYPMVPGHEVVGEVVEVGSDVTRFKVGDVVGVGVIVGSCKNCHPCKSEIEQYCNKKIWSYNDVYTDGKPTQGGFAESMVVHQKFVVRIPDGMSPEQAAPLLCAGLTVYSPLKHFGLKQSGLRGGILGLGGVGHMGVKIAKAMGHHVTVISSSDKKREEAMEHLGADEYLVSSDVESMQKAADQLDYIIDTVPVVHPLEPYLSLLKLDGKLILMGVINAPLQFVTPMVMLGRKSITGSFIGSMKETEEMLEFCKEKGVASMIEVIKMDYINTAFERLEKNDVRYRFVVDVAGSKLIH
The assay is described as follows: In vitro inhibition of isolated poplar cinnamyl alcohol dehydrogenase (CAD) at 2 mM. The conditions noted are these: for inhibition at 2000 µM / Inhibition à 2mM %: 2mM, CAD de peuplier; for inhibition at 2000 µM: read-out: Inhibition à 2mM %. The format is biochemical. The text has this: Après réacidification à pH2 par de l'acide chlorhydrique 3N et centrifugation, le surnageant contenant les acides cinnamiques est séparé du résidu. Les "poudres alcool-benzène" ainsi hydrolysées sont lavées par de l'eau distillée jusqu'à pH neutre et séchées, sous vide dans un dessiccateur en présence de silica.-gel. Les teneurs en lignines sont estimées par la méthode gravimétriques de KLASON (Tappi Standard method Tl2m) modifiée par EFFLAND. Tappi, 60, p 143-144, 1977. On rapporte dans le tableau 1) suivant les résultats obtenus concernant l'effet mesuré in vitro d'inhibiteurs selon l'invention à une concentration de 2mM vis-à-vis de la CAD de peuplier isolée selon la méthode deSARNI et al,1984,EUROP JOURNAL OF BIOCHEMISTRY, 18(1),139, 259-265 On indique également dans ce tableau les résultats obtenus avec des composés portant des substitutions différentes de ceux mis enoe uvre dans l'invention. Les chiffres indiqués entre parenthèses a côté des formules correspondent aux composés identifiés dans les exemples de préparation 2 et 3.
On rapporte dans le tableau 2 suivant les pourcentages d'inhibition de la CAD obtenus en utilisant, à raison de 2 mM, différents composés capables de complexer Zn.

The target in assay [2] is T2, CAD (Populus deltoides, UniProt P31657).
T2 sequence (P31657 1-357): T1 sequence (P31657 1-357)
The assay is described as follows: In vitro CAD activity with nitro derivatives, physiological direction (aldehyde reduction, NADPH oxidation at 340 nm). It is filed as biochemical. The conditions noted are these: read-out: % d'inhibition (activité CAD); for inhibition at 230 µM: Concentration finale dans le milieu 0,230 mM; for inhibition at 375 µM: Concentration finale dans le milieu 0,375 mM. The source says: η) Effets des dérivés nitrés sur l'activité CAD "in vitro". Concentration finale % d'inhibition
Les mesures ont été réalisées dans le sens physiologique (aldéhyde alcool), c'est-à-dire en suivant la réduction de l'aldéhyde (oxydation du NADPH mesurée à 340 nm).(Les tests sont plus sensibles et plus proches du milieu "in vivo".

For assay [3], the system named is cultures de tabac. To be noted: prior art; cited from earlier work.

The inhibition is the change of the read-out against control, counted positive when it falls. Turning to `O=C(O)CSCC(=O)c1ccccc1` [Acide oxo-5-phényl-5-thia-3, reference compound], in assay [1], the inhibition at 2000 µM was found to be 40%. “(Hydroxy-4-methoxy-3-phényl)-3-Hydroxy-3-propanethiate de 5-phényle [HMHP, reference compound]”: in assay [1], the “Inhibition à 2mM %” value was 40%. For the compound `CC(C)(C)OC(=O)C[S+]([O-])Nc1ccc([N+](=O)[O-])cc1` (stereo not shown) [nitro PAS], the inhibition at 125 µM in assay [2] (Concentration finale dans le milieu 0,125 mM) stood at 14%. Further, the inhibition at 188 µM in assay [2] (Concentration finale dans le milieu 0,188 mM) is 28%. In assay [2], the inhibition at 230 µM came out at 68% and the inhibition at 375 µM was found to be 100%. Regarding `CC(C)(C)OC(=O)C[S+]([O-])Nc1ccccc1` (stereo not shown) [composé 1, N-(phényl)sulfinamoyl acétate de tertiobutyle], the inhibition at 2000 µM in assay [1] was found to be 50%. Regarding `CC(C)(C)OC(=O)C(C)(C)[S+]([O-])Nc1ccccc1` (stereo not shown) [compound 15, N-(Phényl)sulfinamoyl isobutyrate de tertiobutyle], the inhibition at 2000 µM in assay [1] came to 0%. Moreover, in assay [1] (listed as NPSI), the “inhibition de l'activité CAD (in words)” value is on record as “inefficaces; also recorded: n'inhibent pas”. For `CC(C)(C)OC(=O)CS(=O)(=O)NC1CCCCC1` [compound 14, N-(Cyclohexyl)sulfamoyl acétate de tertiobutyle], the inhibition at 2000 µM in assay [1] came to 0%. Consider `CC(C)(C)OC(=O)C[S+]([O-])Nc1ccc([N+](=O)[O-])cc1O` (stereo not shown) [nitro OH PAS], for which, in assay [2], the inhibition at 230 µM worked out at 5% and the inhibition at 375 µM is 41%. Moreover, in assay [2] (Concentration finale dans le milieu 0,500 mM), the inhibition at 500 µM was 100%.

As for “N-(Thiazolyl-2) Sulfanilamide [NTS, reference compound]”, in assay [1], the “Inhibition à 2mM %” value came out at 55%.

For the compound `CC(C)(C)OC(=O)CS(=O)(=O)Nc1ccccc1` [composé 7a, N-(phényl)sulfamoyl acétate de tertiobutyle], in assay [1], the inhibition at 2000 µM was determined as 50%. With `NOC(Cc1ccccc1)C(=O)O` (racemic) [acide D,L-α-aminoxy-β -phényl-propionique], the “réduction des phénols totaux” value in assay [3] was around 30%. As to “N-tert-butyl-methoxy-2 (Iminomethyl) - 4 phénol [BIP, reference compound]”, the “Inhibition à 2mM %” value in assay [1] is listed as 50%. `CC(C)(C)OC(=O)CC(=O)Nc1ccccc1` [PCAD, Phényl(carbamoyl) acétate de tertiobutyle, reference compound]: the inhibition at 2000 µM in assay [1] is 0%.

With `O=C(O)CS(=O)(=O)Nc1ccccc1` [NPS, N-(phényl) sulfamoyle], the inhibition at 2000 µM in assay [1] was 45%.

As for `CC(C)(C)OC(=O)C[S+]([O-])NC1CCCCC1` (stereo not shown) [compound 17, N-(Cyclohexyl)sulfinamoyl acétate de tertiobutyle], the inhibition at 2000 µM in assay [1] was determined as 0%. As to `CC(C)[S+]([O-])Nc1ccccc1` (stereo not shown) [NPSP, N-(phényl) sulfinamoyl d'isopropyle, reference compound], in assay [1], the “inhibition de l'activité CAD (in words)” value is listed as “inefficaces; also recorded: n'inhibent pas” and the inhibition at 2000 µM is 0%.
